# Patent publication US20240082181A1, “Method for Treating Blood Cancers” (Lantern Pharma Inc., priority 2021, published 2024)
# Legend:
# Type in all cases: cell-based
# AML193 = test: Cell viability, Promega Celltiter Fluor (72 h); details: Homo sapiens; AML193, Acute Myeloid Leukemia, assay duration 72 hours; read-out: LP-284 IC50
# Experimental: (§1) The sensitivity and selectivity of Compound 1 (with positive optical chirality) was assessed using a panel of human blood cell lines. The cell lines used in this Example are shown below and plotted in FIG. 1. The cells were inoculated into 96 well plates at various numbers of cells/well depending on the doubling time of the cell line for 24 hours. Then these cells were treated by Compound 1 at 5˜8 different doses and DMSO vehicle controls. After another 48 or 72 hour incubation, the number viable cells/wells were measured by the sulforhodamine B (SRB) assay (48 h) or the Promega Celltiter Fluor Cell Viability (72 h). IC50 values were then calculated based on normalized cell counts at different Compound 1 doses. Anti-proliferative activity was determined by cell viability measurements.
# CA46 = test: Cell viability, Promega Celltiter Fluor (72 h); details: Homo sapiens; CA46, Burkitt's Lymphoma, assay duration 72 hours; read-out: LP-284 IC50
# Experimental: as §1
# JEKO1 = test: Cell viability, Promega Celltiter Fluor (72 h); details: Homo sapiens, JeKo-1; JEKO1, Mantle Cell Lymphoma, assay duration 72 hours; read-out: LP-284 IC50
# Experimental: as §1
# JVM2 = test: Cell viability, Promega Celltiter Fluor (72 h); details: Homo sapiens, JVM-2; JVM2, Mantle Cell Lymphoma, assay duration 72 hours; read-out: LP-284 IC50
# Experimental: as §1
# K562R = test: Cell viability, Promega Celltiter Fluor (72 h); details: Homo sapiens, K-562R, Chronic Myeloid Leukemia, assay duration 72 hours, read-out: LP-284 IC50
# Experimental: as §1
# K562 = test: Cell viability, Promega Celltiter Fluor (72 h); details: Homo sapiens; K562, Chronic Myeloid Leukemia, assay duration 72 hours; read-out: LP-284 IC50
# Experimental: as §1
# KU812 = test: Cell viability, Promega Celltiter Fluor (72 h); details: Homo sapiens; KU812, Chronic Myeloid Leukemia, assay duration 72 hours; read-out: LP-284 IC50
# Experimental: as §1
# MAVER1 = test: Cell viability, Promega Celltiter Fluor (72 h); details: Homo sapiens; MAVER1, Mantle Cell Lymphoma, assay duration 72 hours; read-out: LP-284 IC50
# Experimental: as §1
# MINO = test: Cell viability, Promega Celltiter Fluor (72 h); details: Homo sapiens, Mantle Cell Lymphoma, assay duration 72 hours, read-out: LP-284 IC50
# Experimental: as §1
# NCIH929 = test: Cell viability, Promega Celltiter Fluor (72 h); details: Homo sapiens, NCI-H929; NCIH929, Multiple Myeloma, assay duration 72 hours; read-out: LP-284 IC50
# Experimental: as §1
# REC1 = test: Cell viability, Promega Celltiter Fluor (72 h); details: Homo sapiens; REC1, Mantle Cell Lymphoma, assay duration 72 hours; read-out: LP-284 IC50
# Experimental: as §1
# REH = test: Cell viability, Promega Celltiter Fluor (72 h); details: Homo sapiens, Acute Lymphoblastic Leukemia, assay duration 72 hours, read-out: LP-284 IC50
# Experimental: as §1
# SUDHL6 = test: Cell viability, Promega Celltiter Fluor (72 h); details: Homo sapiens, SU-DHL-6; SUDHL6, Double-Hit Lymphoma, assay duration 72 hours; read-out: LP-284 IC50
# Experimental: as §1
# SUPB15 = test: Cell viability, Promega Celltiter Fluor (72 h); details: Homo sapiens, SUP-B15; SUPB15, Acute Lymphoblastic Leukemia, assay duration 72 hours; read-out: LP-284 IC50
# Experimental: as §1
# THP1 = test: Cell viability, Promega Celltiter Fluor (72 h); details: Homo sapiens, THP-1; THP1, Acute Myeloid Leukemia, assay duration 72 hours; read-out: LP-284 IC50
# Experimental: as §1
# U937 = test: Cell viability, Promega Celltiter Fluor (72 h); details: Homo sapiens, U-937; U937, Acute Myeloid Leukemia, assay duration 72 hours; read-out: LP-284 IC50
# Experimental: as §1
# Z138 = test: Cell viability, Promega Celltiter Fluor (72 h); details: Homo sapiens, Z-138; Z138, Mantle Cell Lymphoma, assay duration 72 hours; read-out: LP-284 IC50
# Experimental: as §1
# CCRFCEM = test: Cell viability, sulforhodamine B (SRB) assay (48 h); details: Homo sapiens, CCRF-CEM, Acute Lymphoblastic Leukemia, assay duration 48 hours, read-out: LP-284 IC50
# Experimental: as §1
# HL60TB = test: as above; details: Homo sapiens, HL-60, Acute Myeloid Leukemia, assay duration 48 hours, read-out: LP-284 IC50
# Experimental: as §1
# MOLT4 = test: as above; details: Homo sapiens, MOLT-4; MOLT4, Acute Lymphoblastic Leukemia, assay duration 48 hours; read-out: LP-284 IC50
# Experimental: as §1
# RPMI8226 = test: as above; details: Homo sapiens, RPMI-8226; RPMI8226, Multiple Myeloma, assay duration 48 hours; read-out: LP-284 IC50
# Experimental: as §1
# SR = test: as above; details: Homo sapiens, Anaplastic large cell lymphoma, assay duration 48 hours, read-out: LP-284 IC50
# Experimental: as §1
smiles,measurement,setting,value
"CC1=C(CN(O)C(N)=O)C2=C(C)C3(CC3)[C@@](C)(O)C(=O)C2=C1 [LP-284, hydroxyureamethyl acylfulvene]",IC50,AML193,1800 nM
same,IC50,CA46,431 nM
same,IC50,JEKO1,263 nM
same,IC50,JVM2,343 nM
same,IC50,K562R,295 nM
same,IC50,K562,298 nM
same,IC50,KU812,488 nM
same,IC50,MAVER1,193 nM
same,IC50,MINO,88 nM
same,IC50,NCIH929,334 nM
same,IC50,REC1,794 nM
same,IC50,REH,114 nM
same,IC50,SUDHL6,449 nM
same,IC50,SUPB15,588 nM
same,IC50,THP1,1500 nM
same,IC50,U937,660 nM
same,IC50,Z138,370 nM
same,IC50,CCRFCEM,2220 nM
same,IC50,HL60TB,952 nM
same,IC50,MOLT4,9020 nM
same,IC50,RPMI8226,348 nM
same,IC50,SR,896 nM
